Test results taken from patent publication US12697322B2, “Methods of treating cancer using androgen receptor antagonists” (Garvan Institute of Medical Research, priority 2019, dated 2026).
“Also recorded” adds a separate entry of the source.

Key:
Format in all cases: cell-based, human
[1] = test system: AR full length (100 kDa); test: AR siRNA knockdown, western blot; settings: HCC38 CD44^Hi cells, 20 nM siRNA, 72 h post transfection
Description: Protein was extracted from cell lysates using RIPA lysis buffer (sc-24948) or specific lysis buffer for phospho-proteins detection (20 mM Tris-HC1 pH 7.6, 137 mM NaCl, 1% NP40, 0.5% Na-deoxycholate, 10 mM NaF, 20 mM β-glycerophosphate, 1 mM Na-orthovanadate and 1:200 complete protease inhibitors). 25-30 μg of proteins were run in a 4-12% Bis-tris gel (Invitrogen). Proteins were transferred to a PVDF membrane (BioRad). After blocking with 5% BSA (w/v) and 0.05% (v/v) Tween-20 in PBS, the membranes were incubated overnight with the indicated antibodies, washed with PBS 0.05% (v/v) Tween-20 and incubated with the corresponding horseradish peroxidase-conjugated secondary antibodies (Cell Signaling; Dil 1/5000, Table 3) for 30 min. Blots were developed using Western Lightning Plus ECL (PerkinElmer) and FusionFx7 Digital Imager, Band intensities were quantified using Fiji (Schindelin et al., 2012) and results were represented relative to controls.
siRNAs targeting exon 1 and 7 of AR full length were designed in-house (SEQ ID NOs: 6 and 7). HCC38 CD44^Hi cells (10^5/well) were seeded in M6 plate wells 24 hours prior to siRNA transfection. 20 nM of siRNA CT, siRNA AR Ex1 or AR Ex7 were delivered using lipofectamine 3000 (Thermofisher) as per manufacturer instructions.

[2] = test system: HMLER and HCC38 CD44^Lo cells; test: Flow cytometry of chemotherapy-induced CD44^Lo to CD44^Hi plasticity
Text: Cells were stained and fixed as with DHT treatment.
Using purified populations of CD44^Lo cells (with no CD44^Hi fraction) the effects of chemotherapy on cellular plasticity was investigated using flow cytometry.

[3] = test system: CD44^Hi cells isolated from HMLER and HCC38 cell lines; test: Cell proliferation assay (CyQuant); settings: for CD44^Hi proliferation: CD44^Hi cells from HMLER and HCC38
Description: HMLER, HCC38 and MDA-MB-231 cells were plated in triplicate in 96-well plates at the densities outlined in Table 3. After 24 hours, cells were treated with various chemotherapeutic agents at the following doses: Doxorubicin (0 nM, 25 nM, 50 nM, 75 nM, 100 nM, 200 nM), Cisplatin (0 μg/ml, 0.1 μg/ml, 0.5 μg/ml, 1 μg/ml, 2 μg/ml, 5 μg/ml) or Docetaxel (0 nM, 1 nM, 5 nM, 10 nM, 25 nM, 50 nM); Androgen receptor agonists: Enobosarm (0 nM, 25 nM, 50 nM, 100 nM, 200 nM, 400 nM) or DHT (0 nM, 1 nM, 5 nM, 10 nM, 20 nM, 40 nM); or AR antagonist: Seviteronel (0 nM, 0.5 nM, 2 nM, 10 nM, 20 nM, 50 nM). Assays were harvested daily for five days by removing culture media and storing at −80′C. Cell proliferation was determined using CyQuant Cell Proliferation assay kit according to manufacturer's protocol (ThermoFisher Scientific) and fluorescence was measured at ~480 nm excitation and ~520 nm emission using a microplate reader.

[4] = test system: HMLER-CD44Hi and HCC38 CD44Hi cells; test: Tumoursphere formation assay; settings: CD44^Hi cells, counted at Day 14
Description: Single cell suspensions were plated in ultra-low attachment 96-well plates (Corning #CLS3474, New York, USA). HMLE-CD44^Hi cells were plated at a density of 50 cells/well in 100 μl of BPA-free MEGM media (Lonza # CC-3150, Basal, Switzerland). HCC38-CD44^Hi cells were plated at a density of 100 cells/well in serum-free RPMI with 1% penicillin/streptomycin, 20 ng/ml EGF, 20 ng/ml FGFb, 4 μg/mL heparin, 1×B27 and 1% methyl cellulose (Sigma). Media was replenished every five days by adding 50 μL of the appropriate tumoursphere media to each well. Tumourspheres were counted at Day 14. Results are presented as tumoursphere formation efficiency (number of spheres per well divided by the number of cells seeded per well). At Day 14, mammospheres were collected using a 40 μm cell strainer, washed with PBS and dissociated using trypsin-EDTA solution, and stained with anti-CD44PECy7 and anti-CD104PE as per standard FACS staining protocol.

| Molecule | expression of AR full length [1] | CD44^Hi proliferation [3] | further results |
| --- | --- | --- | --- |
| siRNA AR Ex1: in-house siRNA against AR full length, SEQ ID NO: 6 (GCUUCUGGGUGUCACUAUGUU; listed as RNA, chemistry not given here) | strong reduction | – | – |
| COc1cccc2c1C(=O)c1c(O)c3c(c(O)c1C2=O)C[C@@](O)(C(=O)CO)C[C@@H]3O[C@H]1C[C@H](N)[C@H](O)[C@H](C)O1 [Doxorubicin] | – | – | induction of CD44^Lo-to-CD44^Hi transition by chemotherapy ([2]; one dose of chemotherapy for 72 hours): induce CD44^Lo cells to transition to the CD44^Hi state |
| CNC(=O)c1ccc(N2C(=S)N(c3ccc(C#N)c(C(F)(F)F)c3)C(=O)C2(C)C)cc1F [Enzalutamide, 4-{3-[4-cyano-3-(trifluoromethyl)phenyl]-5,5-dimethyl-4-oxo-2-sulfanylideneimidazolidin-1-yl}-2-fluoro-iV-methylbenzamide] | – | decreased CD44Hi proliferation; also recorded: decrease CD44^Hi proliferation | treatment required to equal the effect of Seviteronel ([3]; CD44^Hi proliferation and tumoursphere formation): daily treatment of Enzalutamide was required to equal one dose of Seviteronel; blocking of chemotherapy-induced CD44^Lo-to-CD44^Hi transitions ([2]; with chemotherapy simultaneously for 72 hours, Seviteronel 10 μM): not as effective as Seviteronel |
| C[C@]12CC[C@H](O)CC1=CC[C@@H]1[C@@H]2CC[C@]2(C)C(c3cccnc3)=CC[C@@H]12 [Abiraterone, (3p)-17-(pyridin-3-yl) androsta-5, 16-dien-3-ol] | – | decreased CD44Hi proliferation; also recorded: decrease CD44^Hi proliferation | tumoursphere formation (tumoursphere-forming efficiency) [4]: decrease |
| AR Ex7: in-house siRNA targeting AR exon 7, SEQ ID NO: 7 (GGAACUCGAUCGUAUCAUUUU; listed as RNA, chemistry not given here) | strong reduction | – | – |
